Measurements taken from publication PMC5777145 (Analytical chemistry, 2017).
“Also recorded” adds a separate entry of the source.

Legend:
salmon testes DNA [1] = settings: for ECL intensity vs enzyme reaction time, DNA oxidation (8-oxodG): 3 mM 4ABP, AF or anisidine, 5 mM NA, pH 7.4 + NADPH regenerating system + Cu2+, different cyt P450 sources, ECL at 0.7 V
[2] = rodent TD50, Comet assay; cited from earlier work
cyt P450s = experiment: Mass spectrometry of metabolites after incubation with cyt P450s, NADPH and Cu2+; format: in vitro ADME; settings: positive-ion electrospray MS
DNA = settings: cited from earlier work
salmon testes DNA [3] = system: salmon testes DNA
[4] = ref International Agency for Research on Cancer (IARC); cited from earlier work

Structure (SMILES) | relative turnover rate R, DNA oxidation (level in words) (salmon testes DNA [1]) | ECL intensity vs enzyme reaction time, DNA oxidation (8-oxodG) (salmon testes DNA [1]) | influence of cyt P450 source on relative DNA oxidation rate (salmon testes DNA [1]; human, rat (enzyme sources), salmon (DNA), pH 7.4) | order of relative DNA oxidation rates (salmon testes DNA [1]; pH 7.4) | toxicity by conventional bioassays [2] | metabolites found (cyt P450s) | major DNA adduct found (DNA) | order of relative DNA adduction rate (salmon testes DNA [3]) | relative turnover rate R, DNA adduction (level in words) (salmon testes DNA [3]; array R values) | influence of cyt P450 source on relative DNA adduction rate (salmon testes DNA [3]; human, rat (enzyme sources), salmon (DNA)) | carcinogen classification [4]
Nc1ccc2ccccc2c1 [NA, 2-naphthylamine] | smaller R values | increases in ECL with reaction time | Supersome 1A2 had the largest relative DNA oxidation and adduction rates | 4-ABP > AF ≈ anisidine > NA | relative lower levels of toxicity | hydronitroxide radical; also recorded: nitroso naphthalene | N-(2′-deoxyguanosin-8-yl)-2-naphthylamine | 4-ABP > AF > anisidine > NA | smaller R values | Supersome 1A2 had the largest relative DNA oxidation and adduction rates | 
COc1ccccc1N [anisidine, o-anisidine] |  | increases in ECL with reaction time |  |  |  | o-aminophenol | N-(2′-deoxyguanosin-8-yl)-2-methoxyaniline |  |  |  | group 2B carcinogen
Nc1ccc2c(c1)Cc1ccccc1-2 [AF, 2-aminofluorene] |  | increases in ECL with reaction time |  |  |  |  |  |  |  |  | 
Nc1ccc(-c2ccccc2)cc1 [4ABP, 4-Aminobiphenyl] |  | increase in ECL intensity with reaction time |  |  |  |  | N-(2′-deoxyguanosin-8-yl)-4-aminobiphenyl |  |  |  | group I carcinogen
